Legend:
Assay in all cases: KINOMEscan
Type in all cases: binding
[1] = biological target: AKT2 (Homo sapiens (Human), UniProt P31751); details: read-out: percent of control
Description: (§1) In vitro profiling of Compound I-2 (1 μM) was performed using the DiscoveRx KINOMEscan® platform.

[2] = biological target: AMPK-alpha1 (Homo sapiens (Human), UniProt Q13131); details: read-out: percent of control
Description: as §1

[3] = biological target: AURKA (Homo sapiens (Human), UniProt O14965); details: read-out: percent of control
Description: as §1

[4] = biological target: BLK (Homo sapiens (Human), UniProt P51451); details: read-out: percent of control
Description: as §1

[5] = biological target: BTK (Homo sapiens (Human), UniProt Q06187); details: read-out: percent of control
Description: as §1

[6] = biological target: CASK (Homo sapiens (Human), UniProt O14936); details: read-out: percent of control
Description: as §1

[7] = biological target: CDK8 (Homo sapiens (Human), UniProt P49336); details: read-out: percent of control
Description: as §1

[8] = biological target: CDKL3 (Homo sapiens (Human), UniProt Q8IVW4); details: read-out: percent of control
Description: as §1

[9] = biological target: DCAMKL3 (Homo sapiens (Human), UniProt Q9C098); details: read-out: percent of control
Description: as §1

[10] = biological target: EGFR(E746-A750del) (Homo sapiens (Human), UniProt P00533, DEL746-750); details: read-out: percent of control
Description: as §1

[11] = biological target: EPHA3 (Homo sapiens (Human), UniProt P29320); details: read-out: percent of control
Description: as §1

[12] = biological target: EPHB2 (Homo sapiens (Human), UniProt P29323); details: read-out: percent of control
Description: as §1

[13] = biological target: EPHB4 (Homo sapiens (Human), UniProt P54760); details: read-out: percent of control
Description: as §1

[14] = biological target: ERK3 (Homo sapiens (Human), UniProt Q16659); details: read-out: percent of control
Description: as §1

[15] = biological target: FES (Homo sapiens (Human), UniProt P07332); details: read-out: percent of control
Description: as §1

[16] = biological target: FGFR3 (Homo sapiens (Human), UniProt P22607); details: read-out: percent of control
Description: as §1

[17] = test system: FLT3 (ITD,D835V); details: 1 μM
Description: as §1

[18] = biological target: FLT3-autoinhibited (Homo sapiens (Human), UniProt P36888); details: read-out: percent of control
Description: as §1

[19] = biological target: GRK2 (Homo sapiens (Human), UniProt P25098); details: read-out: percent of control
Description: as §1

[20] = biological target: GRK3 (Homo sapiens (Human), UniProt P35626); details: read-out: percent of control
Description: as §1

[21] = biological target: INSR (Homo sapiens (Human), UniProt P06213); details: read-out: percent of control
Description: as §1

[22] = biological target: IRAK3 (Homo sapiens (Human), UniProt Q9Y616); details: read-out: percent of control
Description: as §1

[23] = biological target: JNK3 (Homo sapiens (Human), UniProt P53779); details: read-out: percent of control
Description: as §1

[24] = biological target: LATS1 (Homo sapiens (Human), UniProt O95835); details: read-out: percent of control
Description: as §1

[25] = biological target: LYN (Homo sapiens (Human), UniProt P07948); details: read-out: percent of control
Description: as §1

[26] = biological target: MAP4K5 (Homo sapiens (Human), UniProt Q9Y4K4); details: read-out: percent of control
Description: as §1

[27] = biological target: MAPKAPK2 (Homo sapiens (Human), UniProt P49137); details: read-out: percent of control
Description: as §1

[28] = biological target: MST1R (Homo sapiens (Human), UniProt Q04912); details: read-out: percent of control
Description: as §1

[29] = biological target: NEK4 (Homo sapiens (Human), UniProt P51957); details: read-out: percent of control
Description: as §1

[30] = biological target: NIK (Homo sapiens (Human), UniProt Q99558); details: read-out: percent of control
Description: as §1

[31] = biological target: NLK (Homo sapiens (Human), UniProt Q9UBE8); details: read-out: percent of control
Description: as §1

[32] = biological target: PIK3CB (Homo sapiens (Human), UniProt P42338); details: read-out: percent of control
Description: as §1

[33] = biological target: PKN1 (Homo sapiens (Human), UniProt Q16512); details: read-out: percent of control
Description: as §1

[34] = biological target: PLK1 (Homo sapiens (Human), UniProt P53350); details: read-out: percent of control
Description: as §1

[35] = biological target: RIPK4 (Homo sapiens (Human), UniProt P57078); details: read-out: percent of control
Description: as §1

[36] = biological target: RPS6KA4 (Kin.Dom.2-C-terminal) (Homo sapiens (Human), UniProt O75676); details: read-out: percent of control
Description: as §1

[37] = biological target: S6K1 (Homo sapiens (Human), UniProt P23443); details: read-out: percent of control
Description: as §1

[38] = biological target: TXK (Homo sapiens (Human), UniProt P42681); details: read-out: percent of control
Description: as §1

[39] = biological target: WNK4 (Homo sapiens (Human), UniProt Q96J92); details: read-out: percent of control
Description: as §1

Chain of IRAK3 (Q9Y616 whole entry): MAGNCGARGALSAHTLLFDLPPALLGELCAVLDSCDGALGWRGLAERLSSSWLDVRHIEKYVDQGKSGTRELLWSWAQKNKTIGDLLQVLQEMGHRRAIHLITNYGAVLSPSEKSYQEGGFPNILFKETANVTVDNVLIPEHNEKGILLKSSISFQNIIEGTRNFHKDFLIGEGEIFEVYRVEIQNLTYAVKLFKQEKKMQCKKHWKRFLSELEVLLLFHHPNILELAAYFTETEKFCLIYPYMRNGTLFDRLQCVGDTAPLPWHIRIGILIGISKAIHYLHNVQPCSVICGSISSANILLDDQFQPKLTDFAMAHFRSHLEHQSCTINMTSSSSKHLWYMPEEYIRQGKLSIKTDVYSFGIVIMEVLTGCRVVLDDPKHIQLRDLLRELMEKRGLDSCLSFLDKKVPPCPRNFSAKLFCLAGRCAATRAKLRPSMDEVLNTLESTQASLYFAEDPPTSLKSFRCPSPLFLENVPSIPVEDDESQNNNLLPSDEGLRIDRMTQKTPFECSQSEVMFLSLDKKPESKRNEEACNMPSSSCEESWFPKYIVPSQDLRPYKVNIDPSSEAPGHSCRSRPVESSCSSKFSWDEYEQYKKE
Chain of CASK (O14936 whole entry): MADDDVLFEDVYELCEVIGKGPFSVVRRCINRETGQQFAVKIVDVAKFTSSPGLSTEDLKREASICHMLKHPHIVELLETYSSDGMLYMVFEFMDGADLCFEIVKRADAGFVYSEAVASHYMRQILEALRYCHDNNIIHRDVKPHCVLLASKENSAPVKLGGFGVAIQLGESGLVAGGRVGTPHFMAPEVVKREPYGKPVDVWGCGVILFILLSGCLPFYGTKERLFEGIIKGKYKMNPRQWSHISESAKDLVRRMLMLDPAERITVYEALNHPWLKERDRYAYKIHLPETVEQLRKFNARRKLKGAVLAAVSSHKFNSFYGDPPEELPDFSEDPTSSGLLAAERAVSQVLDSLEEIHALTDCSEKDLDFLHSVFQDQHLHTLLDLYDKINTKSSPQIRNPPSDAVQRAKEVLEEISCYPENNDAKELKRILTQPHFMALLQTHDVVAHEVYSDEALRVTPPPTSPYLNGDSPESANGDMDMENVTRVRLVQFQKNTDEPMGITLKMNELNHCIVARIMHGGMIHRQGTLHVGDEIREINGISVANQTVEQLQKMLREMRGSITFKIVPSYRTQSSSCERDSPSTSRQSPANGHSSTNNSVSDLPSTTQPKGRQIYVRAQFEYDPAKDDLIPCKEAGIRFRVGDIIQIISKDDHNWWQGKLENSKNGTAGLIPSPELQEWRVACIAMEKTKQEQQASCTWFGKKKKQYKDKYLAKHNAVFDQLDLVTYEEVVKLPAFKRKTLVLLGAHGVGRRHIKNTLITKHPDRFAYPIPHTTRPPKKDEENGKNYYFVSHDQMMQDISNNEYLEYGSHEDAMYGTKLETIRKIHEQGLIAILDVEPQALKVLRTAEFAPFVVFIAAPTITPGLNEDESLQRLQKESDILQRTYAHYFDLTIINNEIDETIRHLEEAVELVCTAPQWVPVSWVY
Chain of GRK2 (P25098 whole entry): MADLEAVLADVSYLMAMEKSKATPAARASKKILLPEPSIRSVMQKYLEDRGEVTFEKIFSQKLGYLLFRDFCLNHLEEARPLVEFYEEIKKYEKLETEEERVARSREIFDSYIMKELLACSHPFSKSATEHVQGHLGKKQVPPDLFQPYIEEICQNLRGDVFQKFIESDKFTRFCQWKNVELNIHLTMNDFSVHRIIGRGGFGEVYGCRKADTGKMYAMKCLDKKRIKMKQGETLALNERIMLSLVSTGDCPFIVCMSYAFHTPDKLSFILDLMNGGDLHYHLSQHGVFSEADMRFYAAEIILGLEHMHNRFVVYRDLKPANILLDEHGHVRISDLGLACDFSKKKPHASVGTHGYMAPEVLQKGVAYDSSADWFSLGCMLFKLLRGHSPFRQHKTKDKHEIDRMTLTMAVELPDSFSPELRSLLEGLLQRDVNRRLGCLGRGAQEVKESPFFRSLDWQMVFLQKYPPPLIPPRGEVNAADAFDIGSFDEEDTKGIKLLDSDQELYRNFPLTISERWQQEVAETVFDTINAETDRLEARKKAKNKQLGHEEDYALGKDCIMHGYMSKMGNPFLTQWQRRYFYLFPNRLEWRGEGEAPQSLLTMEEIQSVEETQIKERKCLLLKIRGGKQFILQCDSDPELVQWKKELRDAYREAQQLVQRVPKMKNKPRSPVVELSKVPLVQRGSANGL
Chain of PIK3CB (P42338 whole entry): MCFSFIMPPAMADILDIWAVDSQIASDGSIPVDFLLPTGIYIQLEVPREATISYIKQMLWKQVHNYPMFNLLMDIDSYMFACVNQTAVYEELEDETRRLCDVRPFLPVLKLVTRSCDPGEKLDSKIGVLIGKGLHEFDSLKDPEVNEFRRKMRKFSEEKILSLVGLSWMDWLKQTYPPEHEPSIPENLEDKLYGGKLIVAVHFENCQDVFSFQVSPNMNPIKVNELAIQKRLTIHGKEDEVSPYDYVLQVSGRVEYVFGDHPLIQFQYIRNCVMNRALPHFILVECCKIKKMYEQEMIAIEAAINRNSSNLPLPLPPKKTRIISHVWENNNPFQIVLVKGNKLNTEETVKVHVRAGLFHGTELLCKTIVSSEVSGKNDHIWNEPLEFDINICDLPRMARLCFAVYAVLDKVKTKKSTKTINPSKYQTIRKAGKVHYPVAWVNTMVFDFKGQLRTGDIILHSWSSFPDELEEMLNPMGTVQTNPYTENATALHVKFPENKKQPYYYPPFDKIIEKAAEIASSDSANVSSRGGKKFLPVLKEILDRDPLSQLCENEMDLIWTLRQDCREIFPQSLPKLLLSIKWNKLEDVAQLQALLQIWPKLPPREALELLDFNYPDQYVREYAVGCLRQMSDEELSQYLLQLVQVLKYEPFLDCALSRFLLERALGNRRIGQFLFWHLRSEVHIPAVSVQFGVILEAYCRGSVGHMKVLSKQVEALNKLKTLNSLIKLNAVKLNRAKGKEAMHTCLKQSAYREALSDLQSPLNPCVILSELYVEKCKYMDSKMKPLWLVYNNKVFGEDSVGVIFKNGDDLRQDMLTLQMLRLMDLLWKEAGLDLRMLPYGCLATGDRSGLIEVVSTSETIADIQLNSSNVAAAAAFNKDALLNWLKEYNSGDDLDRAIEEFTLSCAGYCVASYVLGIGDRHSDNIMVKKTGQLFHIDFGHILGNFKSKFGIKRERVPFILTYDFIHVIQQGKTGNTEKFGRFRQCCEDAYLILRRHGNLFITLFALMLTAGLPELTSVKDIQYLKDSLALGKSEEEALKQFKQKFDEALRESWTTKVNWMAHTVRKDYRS
Chain of AKT2 (P31751 whole entry): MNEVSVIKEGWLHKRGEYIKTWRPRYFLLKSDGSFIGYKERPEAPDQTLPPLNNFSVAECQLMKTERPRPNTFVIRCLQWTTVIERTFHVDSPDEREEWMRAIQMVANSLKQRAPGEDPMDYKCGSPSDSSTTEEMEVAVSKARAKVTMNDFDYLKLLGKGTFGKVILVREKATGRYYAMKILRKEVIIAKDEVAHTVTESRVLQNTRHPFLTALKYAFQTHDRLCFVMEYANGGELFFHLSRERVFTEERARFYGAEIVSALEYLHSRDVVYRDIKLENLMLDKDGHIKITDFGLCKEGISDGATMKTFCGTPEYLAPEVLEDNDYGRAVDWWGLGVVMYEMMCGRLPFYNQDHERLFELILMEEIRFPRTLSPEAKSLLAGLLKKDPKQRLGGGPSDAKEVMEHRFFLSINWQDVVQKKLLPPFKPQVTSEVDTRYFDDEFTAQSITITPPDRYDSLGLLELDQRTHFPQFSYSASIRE
Chain of WNK4 (Q96J92 whole entry): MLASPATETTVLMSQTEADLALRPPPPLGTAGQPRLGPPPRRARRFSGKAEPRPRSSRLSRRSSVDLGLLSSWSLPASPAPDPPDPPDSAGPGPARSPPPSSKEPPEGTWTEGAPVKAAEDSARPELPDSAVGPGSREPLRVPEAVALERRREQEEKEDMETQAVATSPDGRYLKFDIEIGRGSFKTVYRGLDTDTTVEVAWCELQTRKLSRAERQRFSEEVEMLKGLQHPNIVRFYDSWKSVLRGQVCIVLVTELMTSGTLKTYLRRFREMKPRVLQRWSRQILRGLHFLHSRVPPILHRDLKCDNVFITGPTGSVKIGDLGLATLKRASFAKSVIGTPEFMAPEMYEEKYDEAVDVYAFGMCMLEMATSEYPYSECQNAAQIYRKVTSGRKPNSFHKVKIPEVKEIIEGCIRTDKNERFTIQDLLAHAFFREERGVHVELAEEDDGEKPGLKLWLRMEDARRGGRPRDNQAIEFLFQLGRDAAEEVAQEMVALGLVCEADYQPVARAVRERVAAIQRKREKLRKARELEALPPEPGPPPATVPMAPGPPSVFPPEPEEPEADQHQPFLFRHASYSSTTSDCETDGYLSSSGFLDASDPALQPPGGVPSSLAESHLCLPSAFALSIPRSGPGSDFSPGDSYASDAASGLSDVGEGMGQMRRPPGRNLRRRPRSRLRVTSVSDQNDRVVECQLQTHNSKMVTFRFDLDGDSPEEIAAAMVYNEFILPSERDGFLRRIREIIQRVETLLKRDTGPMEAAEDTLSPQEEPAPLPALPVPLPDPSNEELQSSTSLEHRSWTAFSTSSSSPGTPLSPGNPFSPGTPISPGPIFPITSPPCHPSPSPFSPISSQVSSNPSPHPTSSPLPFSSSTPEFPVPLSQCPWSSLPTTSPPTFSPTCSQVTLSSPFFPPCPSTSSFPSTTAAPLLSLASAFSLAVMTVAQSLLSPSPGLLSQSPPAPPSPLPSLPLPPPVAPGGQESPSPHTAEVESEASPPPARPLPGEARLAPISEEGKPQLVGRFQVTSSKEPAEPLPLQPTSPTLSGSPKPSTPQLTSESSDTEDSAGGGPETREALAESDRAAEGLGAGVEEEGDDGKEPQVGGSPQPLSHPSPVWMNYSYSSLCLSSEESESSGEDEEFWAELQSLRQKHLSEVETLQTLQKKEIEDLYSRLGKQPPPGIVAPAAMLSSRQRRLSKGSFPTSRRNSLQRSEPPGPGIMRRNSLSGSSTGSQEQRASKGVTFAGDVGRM

SMILES | remaining binding at 1 µM [1] | remaining binding at 1 µM [2] | remaining binding at 1 µM [3] | remaining binding at 1 µM [4] | remaining binding at 1 µM [5] | remaining binding at 1 µM [6] | remaining binding at 1 µM [7] | remaining binding at 1 µM [8] | remaining binding at 1 µM [9] | remaining binding at 1 µM [10] | remaining binding at 1 µM [11] | remaining binding at 1 µM [12] | remaining binding at 1 µM [13] | remaining binding at 1 µM [14] | remaining binding at 1 µM [15] | remaining binding at 1 µM [16] | percent of control [17] | remaining binding at 1 µM [18] | remaining binding at 1 µM [19] | remaining binding at 1 µM [20] | further results
CCN1CCN(Cc2cc(NC(=O)c3ccc(C)c(-c4ccc5nc(NC(=O)C6CC6)cn5c4)c3)cc(C(F)(F)F)c2)CC1 [Compound I-6, 3-(2-(cyclopropanecarboxamido)imidazo[1,2-a]pyridin-6-yl)-N-(3-((4-ethylpiperazin-1-yl)methyl)-5-(trifluoromethyl)phenyl)-4-methylbenzamide] | 98% | 90% | 94% | 0.2% | 87% | 85% | 3% | 0% | 96% | 25% | 34% | 0% | 0% | 100% | 0.95% | 89% | 76% | 58% | 63% | 90% | remaining binding at 1 µM [21]: 3.2%; remaining binding at 1 µM [22]: 93%; remaining binding at 1 µM [23]: 93%; remaining binding at 1 µM [24]: 85%; remaining binding at 1 µM [25]: 0.6%; remaining binding at 1 µM [26]: 3.2%; remaining binding at 1 µM [27]: 96%; remaining binding at 1 µM [28]: 100%; remaining binding at 1 µM [29]: 15%; remaining binding at 1 µM [30]: 72%; remaining binding at 1 µM [31]: 100%; remaining binding at 1 µM [32]: 94%; remaining binding at 1 µM [33]: 98%; remaining binding at 1 µM [34]: 100%; remaining binding at 1 µM [35]: 100%; remaining binding at 1 µM [36]: 100%; remaining binding at 1 µM [37]: 49%; remaining binding at 1 µM [38]: 19%; remaining binding at 1 µM [39]: 100%
CCN1CCN(Cc2cc(NC(=O)c3ccc(C)c(-c4ccc5nc(NC(=O)C6CC6)cn5n4)c3)cc(C(F)(F)F)c2)CC1 [Compound I-2, 3-(2-(cyclopropanecarboxamido)imidazo[1,2-b]pyridazin-6-yl)-N-(3-((4-ethylpiperazin-1-yl)methyl)-5-(trifluoromethyl)phenyl)-4-methylbenzamide] | 100% | 99% | 64% | 0.75% | 68% | 86% | 4.8% | 0.4% | 91% | 29% | 41% | 0% | 1.3% | 89% | 12% | 86% | 61% | 56% | 94% | 87% | remaining binding at 1 µM [21]: 0.85%; remaining binding at 1 µM [22]: 90%; remaining binding at 1 µM [23]: 85%; remaining binding at 1 µM [24]: 87%; remaining binding at 1 µM [25]: 0.55%; remaining binding at 1 µM [26]: 0.7%; remaining binding at 1 µM [27]: 72%; remaining binding at 1 µM [28]: 83%; remaining binding at 1 µM [29]: 28%; remaining binding at 1 µM [30]: 100%; remaining binding at 1 µM [31]: 95%; remaining binding at 1 µM [32]: 100%; remaining binding at 1 µM [33]: 98%; remaining binding at 1 µM [34]: 98%; remaining binding at 1 µM [35]: 98%; remaining binding at 1 µM [36]: 79%; remaining binding at 1 µM [37]: 52%; remaining binding at 1 µM [38]: 16%; remaining binding at 1 µM [39]: 75%
